The structures appear in SMILES notation.

As a reminder, the melting point is the temperature, or range, at which the solid turns liquid. Regarding `O=C(O)CCNC(=O)c1ccc(N(Cc2ccc(C3=CCCCC3)cc2)C(=O)/C=C/c2cccc(OC(F)(F)F)c2)cc1` [Example 211, 3-(4-{(4-Cyclohex-1-enylbenzyl)-[3-(3-trifluoromethoxyphenyl)acryloyl]amino}benzoylamino) -propionic acid], the melting point was 178 to 180 °C.

The record behind these values is patent US20040152750A1, “Novel glucagon antagonists” (priority 2002, published 2004).
